pIC50: −log10 of the molar value. Like-named read-outs stand apart in the source and are kept apart here.
Molecular target: PRMT5/MEP50 complex (Homo sapiens (Human), UniProt O14744)
Test: PRMT5:MEP50 FlashPlate Assay (histone H4 peptide substrate, plus and minus MTA)
Format: biochemical
Conditions: for IC50: IC50 + 2 μM MTA (nM), in the presence of 2 μM MTA
Protocol: The PRMT5 inhibitory activity of compounds of the present invention was determined using either a PRMT5:MEP50 FlashPlate Assay (Reaction Biology Corporation) or a PRMT5:MEP50 HotSpot Assay (Reaction Biology Corporation).
1. PRMT5:MEP50 FlashPlate Assay

[1] = in the absence of MTA, read-out: IC50
[2] = read-out: IC50 + 2 μM MTA, in the presence of 2 μM MTA

Chain of PRMT5/MEP50 complex (O14744 2-637): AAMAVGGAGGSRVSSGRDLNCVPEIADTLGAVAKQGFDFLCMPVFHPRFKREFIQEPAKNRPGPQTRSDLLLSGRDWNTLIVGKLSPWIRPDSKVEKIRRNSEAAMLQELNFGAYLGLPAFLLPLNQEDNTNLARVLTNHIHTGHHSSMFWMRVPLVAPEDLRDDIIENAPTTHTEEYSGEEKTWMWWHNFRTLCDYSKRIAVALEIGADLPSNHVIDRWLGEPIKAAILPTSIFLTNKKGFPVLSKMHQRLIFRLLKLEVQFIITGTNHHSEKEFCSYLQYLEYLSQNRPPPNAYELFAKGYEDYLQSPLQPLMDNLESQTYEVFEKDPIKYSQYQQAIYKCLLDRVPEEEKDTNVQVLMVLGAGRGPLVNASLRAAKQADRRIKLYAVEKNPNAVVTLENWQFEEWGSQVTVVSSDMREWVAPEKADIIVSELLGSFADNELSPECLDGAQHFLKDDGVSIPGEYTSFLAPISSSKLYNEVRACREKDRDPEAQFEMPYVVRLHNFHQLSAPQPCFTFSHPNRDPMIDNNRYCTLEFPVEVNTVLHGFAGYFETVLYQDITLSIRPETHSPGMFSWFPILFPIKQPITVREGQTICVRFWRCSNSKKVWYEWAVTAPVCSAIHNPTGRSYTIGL
Chain of PRMT5/MEP50 complex (Q9BQA1 2-342 partner): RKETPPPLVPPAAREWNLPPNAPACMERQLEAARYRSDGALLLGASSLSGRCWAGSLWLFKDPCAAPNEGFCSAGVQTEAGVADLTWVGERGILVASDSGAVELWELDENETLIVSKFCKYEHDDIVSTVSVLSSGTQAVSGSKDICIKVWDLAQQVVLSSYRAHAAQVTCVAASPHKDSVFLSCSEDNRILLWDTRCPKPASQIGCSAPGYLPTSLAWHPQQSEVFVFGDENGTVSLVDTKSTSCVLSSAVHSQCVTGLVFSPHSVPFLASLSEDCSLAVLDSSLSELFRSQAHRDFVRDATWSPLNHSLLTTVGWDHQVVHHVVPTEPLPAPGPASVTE

Row | Structure (SMILES) | IC50 [nM] | pIC50 [1] | pIC50 [2]
1 | Cn1cncc1-c1ccc2c(=O)[nH]nc(CN)c2c1 [Example 3-30, 4-(aminomethyl)-6-(1-methyl-1H-imidazol-5-yl)phthalazin-1(2H)-one] | 7700 | 4.07 | 
2 | NCc1n[nH]c(=O)c2ccc(-c3cnc[nH]3)cc12 [Example 3-31, 4-(aminomethyl)-6-(1H-imidazol-5-yl)phthalazin-1(2H)-one] | 80000 | < 4.00 | 
3 | NCc1n[nH]c(=O)c2ccc(-c3cnn(CCO)c3)cc12 [Example 3-32, 4-(aminomethyl)-6-(1-(2-hydroxyethyl)-1H-pyrazol-4-yl)phthalazin-1(2H)-one] |  | 4.94 | 6.15
4 | NCc1n[nH]c(=O)c2ccc(-c3cncc(C4CC4)c3)cc12 [Example 3-33, 4-(aminomethyl)-6-(5-cyclopropylpyridin-3-yl)phthalazin-1(2H)-one] | 61 | 5.80 | 
5 | CCCc1cncc(-c2ccc3c(=O)[nH]nc(CN)c3c2)c1 [Example 3-34, 4-(aminomethyl)-6-(5-propylpyridin-3-yl)phthalazin-1(2H)-one] | 73 | 5.69 | 
6 | NCc1n[nH]c(=O)c2ccc(-c3cncc(CC4CC4)c3)cc12 [Example 3-35, 4-(aminomethyl)-6-(5-(cyclopropylmethyl)pyridin-3-yl)phthalazin-1(2H)-one] | 59 | 5.82 | 
7 | NCc1n[nH]c(=O)c2ccc(-c3cncc(C(F)F)c3)cc12 [Example 3-36, 4-(aminomethyl)-6-(5-(difluoromethyl)pyridin-3-yl)phthalazin-1(2H)-one] | 450 | 5.04 | 
8 | N#Cc1cncc(-c2ccc3c(=O)[nH]nc(CN)c3c2)c1 [Example 3-37, 5-(4-(aminomethyl)-1-oxo-1,2-dihydrophthalazin-6-yl)nicotinonitrile] | 3200 | 4.14 | 
9 | N#Cc1cncc(-c2ccc3c(=O)[nH]nc(CN)c3c2)c1F [Example 3-38] |  | 5.31 | 6.43
10 | CC#Cc1cncc(-c2ccc3c(=O)[nH]nc(CN)c3c2)c1 [Example 3-39, 4-(aminomethyl)-6-(5-(prop-1-yn-1-yl)pyridin-3-yl)phthalazin-1(2H)-one] | 920 | 4.61 | 
11 | NCc1n[nH]c(=O)c2ccc(-c3cncc(F)c3)cc12 [Example 3-41, 4-(aminomethyl)-6-(5-fluoropyridin-3-yl)phthalazin-1(2H)-one] | 1600 | 4.56 | 
12 | NCc1n[nH]c(=O)c2ccc(-c3cncc(Cl)c3)cc12 [Example 3-42, 4-(aminomethyl)-6-(5-chloropyridin-3-yl)phthalazin-1(2H)-one] | 200 | 5.45 | 
13 | NCc1n[nH]c(=O)c2ccc(-c3cncc(C(F)(F)F)c3)cc12 [Example 3-43, 4-(aminomethyl)-6-(5-(trifluoromethyl)pyridin-3-yl)phthalazin-1(2H)-one] | 340 | 5.19 | 
14 | NCc1n[nH]c(=O)c2ccc(-c3cncc(O)c3)cc12 [Example 3-44, 4-(aminomethyl)-6-(5-hydroxypyridin-3-yl)phthalazin-1(2H)-one] | 1200 | 4.71 | 
15 | COc1cncc(-c2ccc3c(=O)[nH]nc(CN)c3c2)c1 [Example 3-45, 4-(aminomethyl)-6-(5-methoxypyridin-3-yl)phthalazin-1(2H)-one] | 370 | 5.17 | 
16 | COCc1cncc(-c2ccc3c(=O)[nH]nc(CN)c3c2)c1 [Example 3-46, 4-(aminomethyl)-6-(5-(methoxymethyl)pyridin-3-yl)phthalazin-1(2H)-one] | 570 | 5.10 | 

Row | Structure (SMILES) | IC50 [nM] | pIC50 [1] | pIC50 [2]
17 | NCc1n[nH]c(=O)c2ccc(-c3cncc(CO)c3)cc12 [Example 3-47, 4-(aminomethyl)-6-(5-(hydroxymethyl)pyridin-3-yl)phthalazin-1(2H)-one] | 56 | 5.53 | 
18 | CS(=O)(=O)c1cncc(-c2ccc3c(=O)[nH]nc(CN)c3c2)c1 [Example 3-48, 4-(aminomethyl)-6-(5-(methylsulfonyl)pyridin-3-yl)phthalazin-1(2H)-one] | 280 | 5.10 | 
19 | CCOc1cncc(-c2ccc3c(=O)[nH]nc(CN)c3c2)c1 [Example 3-49, 4-(aminomethyl)-6-(5-ethoxypyridin-3-yl)phthalazin-1(2H)-one] | 110 | 5.41 | 
20 | NCc1n[nH]c(=O)c2ccc(-c3cncc(OC(F)F)c3)cc12 [Example 3-51, 4-(aminomethyl)-6-(5-(difluoromethoxy)pyridin-3-yl)phthalazin-1(2H)-one] | 500 | 4.95 | 
21 | CC(C)Oc1cncc(-c2ccc3c(=O)[nH]nc(CN)c3c2)c1 [Example 3-52, 4-(aminomethyl)-6-(5-isopropoxypyridin-3-yl)phthalazin-1(2H)-one] | 370 | 5.52 | 
22 | NCc1n[nH]c(=O)c2ccc(-c3cncc(OCC4CC4)c3)cc12 [Example 3-53, 4-(aminomethyl)-6-(5-(cyclopropylmethoxy)pyridin-3-yl)phthalazin-1(2H)-one] | 28 | 5.87 | 
23 | NCc1n[nH]c(=O)c2ccc(-c3cncc4ccccc34)cc12 [Example 3-54, 4-(aminomethyl)-6-(isoquinolin-4-yl)phthalazin-1(2H)-one] | 64 | 5.89 | 
24 | NCc1n[nH]c(=O)c2ccc(-c3cncc4[nH]ccc34)cc12 [Example 3-55, 4-(aminomethyl)-6-(1H-pyrrolo[2,3-c]pyridin-4-yl)phthalazin-1(2H)-one] | 83 | 5.73 | 
25 | Cc1c(Cl)cncc1-c1ccc2c(=O)[nH]nc(CN)c2c1 [Example 3-56, 4-(aminomethyl)-6-(5-chloro-4-methylpyridin-3-yl)phthalazin-1(2H)-one] | 550 | 4.94 | 
26 | NCc1n[nH]c(=O)c2ccc(-c3nncn3Cc3ccccc3)cc12 [Example 3-57, 4-(aminomethyl)-6-(4-benzyl-4H-1,2,4-triazol-3-yl)phthalazin-1(2H)-one] | 30000 |  | 
27 | NCc1n[nH]c(=O)c2ccc(-c3cncc(N4CCOCC4)c3)cc12 [Example 3-58, 4-(aminomethyl)-6-(5-morpholinopyridin-3-yl)phthalazin-1(2H)-one] | 510 | 5.09 | 
28 | Cc1ccccc1-c1ccc2c(=O)[nH]nc(CN)c2c1 [Example 3-60, 4-(aminomethyl)-6-(o-tolyl)phthalazin-1(2H)-one] | 8100 | < 4.00 | 
29 | CC(C)c1c[nH]c2ncc(-c3ccc4c(=O)[nH]nc(CN)c4c3)cc12 [Example 3-61, 4-(aminomethyl)-6-(3-isopropyl-1H-pyrrolo[2,3-b]pyridin-5-yl)phthalazin-1(2H)-one] | 3.4 | 7.10 | 
30 | NCc1n[nH]c(=O)c2ccc(-c3cccnn3)cc12 [Example 4-1, 4-(aminomethyl)-6-(pyridazin-3-yl)phthalazin-1(2H)-one] | 45000 | < 4.00 | 
31 | NCc1n[nH]c(=O)c2ccc(-c3cnsc3)cc12 [Example 4-2, 4-(aminomethyl)-6-(isothiazol-4-yl)phthalazin-1(2H)-one] | 490 | 4.86 | 
32 | NCc1n[nH]c(=O)c2ccc(-c3cnc4ccccn34)cc12 [Example 4-3, 4-(aminomethyl)-6-(imidazo[1,2-a]pyridin-3-yl)phthalazin-1(2H)-one] | 37 | 6.03 | 
